Assay results published in ChEMBL document CHEMBL1146065, “Structure-based optimization of azole antifungal agents by CoMFA, CoMSIA, and molecular docking” (2006).
Converted amounts (≈) assume the structure as drawn.

Tests used:
Type in all cases: functional
Candida albicans = assay: Antifungal activity against Candida albicans
Candida parapsilosis = assay: Antifungal activity against Candida parapsilosis; conditions: Lodderomyces parapsilosis
Candida tropicalis = assay: Antifungal activity against Candida tropicalis
Cryptococcus neoformans = assay: Antifungal activity against Cryptococcus neoformans
Aspergillus fumigatus = assay: Antifungal activity against Aspergillus fumigatus
Fonsecaea pedrosoi = assay: Antifungal activity against Fonsecaea pedrosoi
Trichophyton rubrum = assay: Antifungal activity against Trichophyton rubrum
Sporothrix schenckii = assay: Antifungal activity against Sporothrix schenckii
Microsporum = assay: Antifungal activity against Microsporum lanosum

Compound | MIC80 (Candida albicans) [µg/mL] | MIC80 (Candida parapsilosis) [µg/mL] | MIC80 (Candida tropicalis) [µg/mL] | MIC80 (Cryptococcus neoformans) [µg/mL] | MIC80 (Aspergillus fumigatus) [µg/mL] | MIC80 (Fonsecaea pedrosoi) [µg/mL] | MIC80 (Trichophyton rubrum) [µg/mL] | MIC80 (Sporothrix schenckii) [µg/mL] | MIC80 (Microsporum) [µg/mL]
CN(Cc1ccc(-n2cnn(Cc3cccc(C(F)(F)F)c3)c2=O)cc1)CC(O)(Cn1cncn1)c1ccc(F)cc1F (stereo not drawn) | 0.002 (≈ 0.00334 µM) | 0.008 (≈ 0.0133 µM) | 0.0625 (≈ 0.104 µM) | 0.125 (≈ 0.208 µM) | 16 (≈ 26.7 µM) | 0.125 (≈ 0.208 µM) | 0.5 (≈ 0.834 µM) | 64 (≈ 107 µM) | –
CN(Cc1ccc(-n2cnn(Cc3ccc(OC(F)(F)F)cc3)c2=O)cc1)CC(O)(Cn1cncn1)c1ccc(F)cc1F (stereo not drawn) | 0.002 (≈ 0.00325 µM) | 0.008 (≈ 0.013 µM) | 0.0312 (≈ 0.0508 µM) | 0.016 (≈ 0.026 µM) | 8 (≈ 13 µM) | 0.125 (≈ 0.203 µM) | 0.25 (≈ 0.406 µM) | 32 (≈ 52 µM) | –
CN(Cc1ccc(-n2cnn(Cc3cccc(Cl)c3)c2=O)cc1)CC(O)(Cn1cncn1)c1ccc(F)cc1F (stereo not drawn) | 0.016 (≈ 0.0283 µM) | 4 (≈ 7.07 µM) | 0.5 (≈ 0.883 µM) | 0.5 (≈ 0.883 µM) | 8 (≈ 14.1 µM) | 0.125 (≈ 0.221 µM) | 0.5 (≈ 0.883 µM) | 32 (≈ 56.5 µM) | –
CN(Cc1ccc(-n2cnn(Cc3ccc(C(F)(F)F)cc3)c2=O)cc1)CC(O)(Cn1cncn1)c1ccc(F)cc1F (stereo not drawn) | 0.001 (≈ 0.00167 µM) | 0.008 (≈ 0.0133 µM) | 0.0625 (≈ 0.104 µM) | 0.25 (≈ 0.417 µM) | 8 (≈ 13.3 µM) | 0.0625 (≈ 0.104 µM) | 0.5 (≈ 0.834 µM) | 16 (≈ 26.7 µM) | –
CN(Cc1ccc(-n2cnn(Cc3ccc(I)cc3)c2=O)cc1)CC(O)(Cn1cncn1)c1ccc(F)cc1F (stereo not drawn) | 0.031 (≈ 0.0472 µM) | 0.031 (≈ 0.0472 µM) | 1 (≈ 1.52 µM) | 0.25 (≈ 0.38 µM) | 2 (≈ 3.04 µM) | 0.0625 (≈ 0.0951 µM) | 0.25 (≈ 0.38 µM) | 64 (≈ 97.3 µM) | –
CN(Cc1ccc(-n2cnn(Cc3ccc(Br)cc3F)c2=O)cc1)CC(O)(Cn1cncn1)c1ccc(F)cc1F (stereo not drawn) | 0.002 (≈ 0.00318 µM) | 0.008 (≈ 0.0127 µM) | 0.0625 (≈ 0.0995 µM) | 0.125 (≈ 0.199 µM) | 4 (≈ 6.36 µM) | 0.125 (≈ 0.199 µM) | 0.5 (≈ 0.796 µM) | 64 (≈ 102 µM) | –
CN(Cc1ccc(NC(=O)c2ccc([N+](=O)[O-])cc2)cc1)CC(O)(Cn1cncn1)c1ccc(F)cc1F (stereo not drawn) | 0.0625 (≈ 0.12 µM) | 0.125 (≈ 0.239 µM) | 0.5 (≈ 0.957 µM) | 0.5 (≈ 0.957 µM) | > 64 | 0.25 (≈ 0.478 µM) | 0.5 (≈ 0.957 µM) | – | 4 (≈ 7.66 µM)
CN(Cc1ccc(-n2cnn(CC(=O)c3ccc(Cl)cc3)c2=O)cc1)CC(O)(Cn1cncn1)c1ccc(F)cc1F (stereo not drawn) | 0.004 (≈ 0.00673 µM) | 0.03 (≈ 0.0505 µM) | 0.0625 (≈ 0.105 µM) | 2 (≈ 3.37 µM) | 64 (≈ 108 µM) | 0.25 (≈ 0.421 µM) | 4 (≈ 6.73 µM) | 64 (≈ 108 µM) | –
CN(Cc1ccc(NC(=O)c2ccc(Br)cc2)cc1)CC(O)(Cn1cncn1)c1ccc(F)cc1F (stereo not drawn) | 0.008 (≈ 0.0144 µM) | 0.016 (≈ 0.0288 µM) | 0.016 (≈ 0.0288 µM) | 0.125 (≈ 0.225 µM) | 16 (≈ 28.8 µM) | ≤ 0.125 | ≤ 0.125 | – | 0.25 (≈ 0.449 µM)

Now from value to molecule:

MIC80 (Candida albicans) [µg/mL] | MIC80 (Candida parapsilosis) [µg/mL] | MIC80 (Candida tropicalis) [µg/mL] | MIC80 (Cryptococcus neoformans) [µg/mL] | MIC80 (Aspergillus fumigatus) [µg/mL] | MIC80 (Fonsecaea pedrosoi) [µg/mL] | MIC80 (Trichophyton rubrum) [µg/mL] | MIC80 (Sporothrix schenckii) [µg/mL] | MIC80 (Microsporum) [µg/mL] | Compound
0.008 (≈ 0.0143 µM) | 0.008 (≈ 0.0143 µM) | 0.25 (≈ 0.447 µM) | 0.5 (≈ 0.893 µM) | 8 (≈ 14.3 µM) | 0.25 (≈ 0.447 µM) | 0.5 (≈ 0.893 µM) | 64 (≈ 114 µM) | – | CCc1ccc(Cn2ncn(-c3ccc(CN(C)CC(O)(Cn4cncn4)c4ccc(F)cc4F)cc3)c2=O)cc1 (stereo not drawn)
0.016 (≈ 0.0313 µM) | 0.031 (≈ 0.0606 µM) | 0.016 (≈ 0.0313 µM) | 0.25 (≈ 0.488 µM) | 32 (≈ 62.5 µM) | ≤ 0.125 | ≤ 0.125 | – | 8 (≈ 15.6 µM) | CN(Cc1ccc(NC(=O)c2ccc(Cl)cc2)cc1)CC(O)(Cn1cncn1)c1ccc(F)cc1F (stereo not drawn)
0.016 (≈ 0.0326 µM) | 0.031 (≈ 0.0631 µM) | 0.016 (≈ 0.0326 µM) | 0.5 (≈ 1.02 µM) | 32 (≈ 65.1 µM) | 0.25 (≈ 0.509 µM) | ≤ 0.125 | – | 2 (≈ 4.07 µM) | Cc1ccc(C(=O)Nc2ccc(CN(C)CC(O)(Cn3cncn3)c3ccc(F)cc3F)cc2)cc1 (stereo not drawn)
0.0625 (≈ 0.102 µM) | 2 (≈ 3.25 µM) | 0.5 (≈ 0.812 µM) | 32 (≈ 52 µM) | 64 (≈ 104 µM) | 2 (≈ 3.25 µM) | 64 (≈ 104 µM) | 64 (≈ 104 µM) | – | CN(Cc1ccc(-n2cnn(CC(=O)c3ccc(C(C)(C)C)cc3)c2=O)cc1)CC(O)(Cn1cncn1)c1ccc(F)cc1F (stereo not drawn)
0.032 (≈ 0.075 µM) | 4 (≈ 9.38 µM) | 0.25 (≈ 0.586 µM) | 0.5 (≈ 1.17 µM) | 64 (≈ 150 µM) | 1 (≈ 2.35 µM) | 8 (≈ 18.8 µM) | 64 (≈ 150 µM) | – | CN(Cc1cccc(C(F)(F)F)c1)CC(O)(Cn1cncn1)c1ccc(F)cc1F (stereo not drawn)
2 (≈ 4.96 µM) | 2 (≈ 4.96 µM) | 0.25 (≈ 0.62 µM) | 0.25 (≈ 0.62 µM) | 4 (≈ 9.92 µM) | 1 (≈ 2.48 µM) | 0.25 (≈ 0.62 µM) | 64 (≈ 159 µM) | – | CN(Cc1ccccc1[N+](=O)[O-])CC(O)(Cn1cncn1)c1ccc(F)cc1F (stereo not drawn)
0.125 (≈ 0.206 µM) | 0.5 (≈ 0.822 µM) | 0.0625 (≈ 0.103 µM) | 64 (≈ 105 µM) | 32 (≈ 52.6 µM) | 1 (≈ 1.64 µM) | 64 (≈ 105 µM) | 64 (≈ 105 µM) | – | Cc1ccc(C(=O)Cn2ncn(-c3ccc(CN(C)CC(O)(Cn4cncn4)c4ccc(F)cc4F)cc3)c2=O)c(Cl)c1 (stereo not drawn)
